pEC50, pIC50: −log10 of the molar value.

Assay [1] has as its system HepG2 cells. In words: Cell growth inhibition measurement (CCK-8), HepG2. Type of assay: cell-based. The note with it: Homo sapiens, HepG2, 72 h, highest EC50 measured during one or multiple operations, read-out: Inhibition activity against cancer cells, HepG2 (EC50). An excerpt: (§1) A HepG2 cell strain and an HCT-116 cell strain were purchased from Shanghai Institutes for Biological Sciences; a DMEM high-sugar culture medium and an MEM culture medium were purchased from Hyclone; fetal calf serum was purchased from Gibco; trypsin was purchased from Invitrogen Shanghai; a CCK-8 kit was purchased from Beyotime Institute of Biotechnology; and, the remaining cell culture mediums and other consumables were purchased from Corning China.
(§2) HepG2 cells and HCT-116 cells in the logarithmic growth phase were digested by trypsin. After the counting of uniform cell suspension, the cell density was adjusted as 1500 cells/well by a culture medium containing 10% serum. The cells were re-inoculated to a 96-well cell culture plate, and cultured to a volume of 200 μL at 37° C. in an incubator containing 5% CO2. The cells could be tested after being cultured for 24 h.
(§3) The cells cultured for 24 h were taken out from the incubator. The culture liquid in the well plate was sucked out, and 200 μL of compound solution prepared in the culture medium containing 10% fetal calf serum was added in each well. Five parallel mediums were provided for each concentration, and a DMSO culture medium was used as negative control. The culture mediums were cultured for 72 h at 37° C. in an incubator containing 5% CO2, and CCK-8 detection was performed.
(§4) A serum-free culture medium and CCK-8 solution were prepared, and CCK-8 working solution was prepared at a ratio of 10:1 (this process should be performed in dark place).
(§5) The cells cultured for 72 h were taken out from the incubator. The culture liquid in the well plate was sucked out, and 120 μL of the CCK-8 working solution was added in each well. A well plate without cells was also added with 120 μL of the CCK-8 working solution to serve as blank control. The well plates were cultured for 1 h at 37° C. in an incubator containing 5% CO2 (this process should be performed in dark place).
(§6) The well plates were taken out from the incubator, 100 μL of solution in each well was sucked out and added in a new 96-well plate, and the absorbance was measured at 450 nm (this process should be performed in dark place).
(§7) where Tx is the absorbance of the CCK-8 after the compound acts for 72 h;
(§8) C is the absorbance of the CCK-8 after the negative control wells are cultured for 72 h; and
(§9) B is the absorbance of the CCK-8 in the blank control wells.
(§10) The test results of the compounds prepared according to the embodiments during the measurement are shown in Table 3, wherein the measured highest EC50 of the compounds during one operation or multiple operations is classified according to the following description: […]

Assay [2] deals with T1, HDAC 3 (Homo sapiens, UniProt O15379).
T1 construct: purchased BPS Bioscience #50003
T1 sequence (O15379 whole entry): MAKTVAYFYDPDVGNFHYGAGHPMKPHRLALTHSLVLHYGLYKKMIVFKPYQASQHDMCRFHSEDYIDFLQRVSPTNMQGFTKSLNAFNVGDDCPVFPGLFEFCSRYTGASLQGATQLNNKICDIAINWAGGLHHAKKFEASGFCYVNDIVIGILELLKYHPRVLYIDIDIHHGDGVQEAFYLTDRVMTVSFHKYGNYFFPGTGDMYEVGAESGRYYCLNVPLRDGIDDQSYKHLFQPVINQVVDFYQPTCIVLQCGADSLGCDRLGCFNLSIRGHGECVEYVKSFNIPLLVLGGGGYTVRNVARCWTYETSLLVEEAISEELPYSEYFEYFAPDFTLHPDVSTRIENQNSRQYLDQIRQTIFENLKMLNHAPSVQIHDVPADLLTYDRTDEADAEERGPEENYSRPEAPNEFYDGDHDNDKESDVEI
T1 sequence (Q9Y618 395-489 partner limits assumed): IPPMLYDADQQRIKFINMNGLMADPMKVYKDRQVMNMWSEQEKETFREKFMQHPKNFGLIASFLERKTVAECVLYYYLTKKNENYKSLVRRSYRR
In words: Enzyme activity detection of histone deacetylase 3 (fluorogenic substrate deacetylation). As to conditions: 0.16 ng/μL HDAC 3, 10 μM substrate; IC50 class. Type of assay: biochemical. The text has this: (§11) During the deacetylation detection of a substrate, the HDAC inhibition activity of the compound of the present invention was detected.
B: Enzyme Activity Detection of Histone Deacetylase 3 (#50003, BPS Bioscience)
(§12) Acetyl on the substrate was removed by the HDAC 3, so that the substrate was activated, and the developing liquid added subsequently could act on the substrate to release the fluorescent group. The size of the fluorescence signal reflected the activity of the HDAC 3. The IC50 detection method for this enzyme was disclosed in Chuping Xu, Elisabetta Soragni Improved Histone Deacetylase Inhibitors as Therapeutics for the Neurdegenerative Disease Friedreich's Ataxia: A New Synthetic Route. The total reaction system (100 μL/well) contained 0.16 ng/μL of HDAC 3, 10 μM of the substrate and the compound in different concentrations. The fluorescence signal was detected online at Ex/Em=360/460. The inhibition effect of the compound was determined from the obtained data, a concentration response curve was obtained by using the inhibition effect and the concentration of the compound, and the value of IC50 was fitted according to a four-parameter model.
(§13) The activities of the compounds prepared in the embodiments against the histone deacetylases 1, 3 and 6 (i.e., HDAC 1, HDAC 3 and HDAC 6) were detected by the above methods, and the test results were shown in Table 2, where the measurements of IC50 of the compounds were classified according to the following description: […]

For assay [3], the target named is T2, HDAC 6 (Homo sapiens, UniProt Q9UBN7).
T2 construct: purchased BPS Bioscience #50076
T2 sequence (Q9UBN7 1-1215): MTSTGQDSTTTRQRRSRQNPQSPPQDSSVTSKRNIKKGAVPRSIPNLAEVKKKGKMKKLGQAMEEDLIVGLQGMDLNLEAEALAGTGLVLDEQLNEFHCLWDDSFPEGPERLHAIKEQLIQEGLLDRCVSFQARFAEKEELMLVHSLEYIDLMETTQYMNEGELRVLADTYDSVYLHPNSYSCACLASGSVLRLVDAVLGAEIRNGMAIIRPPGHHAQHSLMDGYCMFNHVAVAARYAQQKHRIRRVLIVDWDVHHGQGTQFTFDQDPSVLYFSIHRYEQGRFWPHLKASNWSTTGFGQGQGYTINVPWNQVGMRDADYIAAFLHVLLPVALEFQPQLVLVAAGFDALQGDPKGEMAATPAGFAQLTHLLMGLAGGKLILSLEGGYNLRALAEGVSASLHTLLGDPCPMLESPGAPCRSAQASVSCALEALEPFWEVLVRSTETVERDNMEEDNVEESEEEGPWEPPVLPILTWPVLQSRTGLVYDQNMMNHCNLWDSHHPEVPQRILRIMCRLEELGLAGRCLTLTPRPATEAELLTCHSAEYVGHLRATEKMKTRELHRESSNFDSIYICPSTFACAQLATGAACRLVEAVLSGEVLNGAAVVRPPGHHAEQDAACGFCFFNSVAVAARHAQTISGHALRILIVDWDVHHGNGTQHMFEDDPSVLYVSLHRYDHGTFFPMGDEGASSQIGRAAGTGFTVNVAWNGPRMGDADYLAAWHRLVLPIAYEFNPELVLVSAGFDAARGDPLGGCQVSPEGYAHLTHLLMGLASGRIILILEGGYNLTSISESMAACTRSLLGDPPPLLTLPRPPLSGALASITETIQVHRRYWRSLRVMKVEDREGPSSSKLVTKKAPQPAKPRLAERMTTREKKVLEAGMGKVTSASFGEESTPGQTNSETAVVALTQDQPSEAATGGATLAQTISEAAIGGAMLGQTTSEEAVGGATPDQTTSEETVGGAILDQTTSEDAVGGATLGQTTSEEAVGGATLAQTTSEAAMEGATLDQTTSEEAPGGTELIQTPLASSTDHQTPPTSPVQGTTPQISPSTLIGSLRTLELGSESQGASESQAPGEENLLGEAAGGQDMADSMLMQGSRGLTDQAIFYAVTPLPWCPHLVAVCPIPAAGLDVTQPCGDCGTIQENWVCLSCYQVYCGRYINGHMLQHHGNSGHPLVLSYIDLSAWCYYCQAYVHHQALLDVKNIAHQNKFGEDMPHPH
The assay can be described thus: Enzyme activity detection of histone deacetylase 6 (fluorogenic substrate deacetylation). In kind it is biochemical. As to conditions: 0.35 ng/μL HDAC 6, 20 μM substrate, 30 min at 37° C.; IC50 class.
Excerpt: as §11
A: Enzyme Activity Detection of Histone Deacetylase 6 (#50076, BPS Bioscience)
Acetyl on the substrate was removed by the HDAC 6, so that the substrate was activated, and the developing liquid added subsequently could act on the substrate to release the fluorescent group. The size of the fluorescence signal reflected the activity of the HDAC 6. The IC50 detection method for this enzyme was disclosed in Chuping Xu, Elisabetta Soragni Improved Histone Deacetylase Inhibitors as Therapeutics for the Neurdegenerative Disease Friedreich's Ataxia: A New Synthetic Route. The total reaction system (100 μL/well) contained 0.35 ng/μL of HDAC 6, 20 μM of the substrate and the compound in different concentrations. The reaction system was incubated for 30 min at 37° C., and the fluorescence signal was then measured. The inhibition effect of the compound was determined from the obtained data, a concentration response curve was obtained by using the inhibition effect and the concentration of the compound, and the value of IC50 was fitted according to a four-parameter model.
as §13

The target in assay [4] is HDAC 1 (Homo sapiens, UniProt Q13547). The assay can be described thus: Enzyme activity detection of histone deacetylase 1 (fluorogenic substrate deacetylation). As to conditions: 0.28 ng/μL HDAC 1, 10 μM substrate; IC50 class. Type of assay: biochemical.
Sequence of HDAC 1 (Q13547 whole entry, species assumed): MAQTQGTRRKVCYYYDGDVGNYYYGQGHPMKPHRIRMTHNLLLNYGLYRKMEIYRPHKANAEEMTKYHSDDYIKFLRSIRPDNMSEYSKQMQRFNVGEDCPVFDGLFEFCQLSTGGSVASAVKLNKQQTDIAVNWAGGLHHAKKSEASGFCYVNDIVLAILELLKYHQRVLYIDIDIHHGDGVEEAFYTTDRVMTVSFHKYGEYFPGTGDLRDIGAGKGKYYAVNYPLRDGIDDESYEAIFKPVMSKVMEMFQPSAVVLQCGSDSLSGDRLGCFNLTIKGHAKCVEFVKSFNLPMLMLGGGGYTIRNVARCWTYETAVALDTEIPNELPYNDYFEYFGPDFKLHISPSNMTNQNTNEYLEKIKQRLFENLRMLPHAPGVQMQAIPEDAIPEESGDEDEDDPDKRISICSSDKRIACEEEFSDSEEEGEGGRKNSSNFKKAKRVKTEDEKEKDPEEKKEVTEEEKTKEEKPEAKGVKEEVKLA
Excerpt: as §11
C: Enzyme Activity Detection of Histone Deacetylase 1
as §12, with “1,” for “3,”, “1.” for “3.”, “0.28” for “0.16”
as §13

In assay [5] the test system is HCT-116 cells. In words: Cell growth inhibition measurement (CCK-8), HCT-116. In kind it is cell-based. The note with it: Homo sapiens, HCT-116, 72 h, highest EC50 measured during one or multiple operations, read-out: Inhibition activity against cancer cells, HCT-116 (EC50).
Excerpt: as §1, §2, §3, §4, §5, §6, §7, §8, §9, §10

Turning to `O=C(NO)C1=CCN(S(=O)(=O)c2ccc(-c3cnn(C4CCNCC4)c3)cc2)CC1` [Compound 1, N-hydroxyl-1-((4-(1-(piperidine-4-yl)-1H-pyrazol-4-yl)phenyl)sulfonyl)-1,2,3,6-tetrahydropyridine-4-formamide], in assay [1], the pEC50 was below 7.00. The negative-log IC50 (pIC50) in assay [2] was 6.30 to 7.00; in assay [3], above 7.00.

Turning to `O=C(NO)C1=CCN(S(=O)(=O)c2ccc(-c3ccc(O)cc3)cc2)CC1` [Compound 2, N-hydroxyl-1-((4′-hydroxyl-[1,1′-biphenyl]-4-yl)sulfonyl)-1,2,3,6-tetrahydropyridine-4-formamide], the pEC50 in assay [1] was above 7.00. For the same molecule, the pIC50 in assay [2] is 6.30 to 7.00; in assay [3], above 7.00.

On to `O=C(NO)C1=CCN(S(=O)(=O)c2ccc(-c3ccc(CN4CCCCC4)cc3)cc2)CC1` [Compound 19, N-hydroxyl-1-((4′-(piperidine-1-ylmethyl)-[1,1′-biphenyl]-4-yl)sulfonyl)-1,2,3,6-tetrahydropyridine-4-formamide], for which the pIC50 in assay [4] and in assay [3] was above 7.00 each time. In addition, the pEC50 in assay [1] and in assay [5] was above 7.00 each time.

Take `CN1CCN(c2ccc(-c3ccc(S(=O)(=O)N4CCC=C(C(=O)NO)CC4)cc3)cc2)CC1` [Compound 44, N-hydroxyl-1-((4′-(4-methylpiperazine-1-yl)-[1,1′-biphenyl]-4-yl)sulfonyl)-2,3,6,7-tetrahydro-1H-aza-4-formamide]: the figures for the negative logarithm of the IC50 (pIC50) in assay [4], in assay [2] and in assay [3] were 6.30 to 7.00, 6.30 to 7.00 and above 7.00, respectively. Besides, the pEC50 in assay [1] was below 7.00.

The record behind these values is patent publication US11149008B2, “Sulfamide derivatives and preparation method and use thereof” (HitGen Ltd., priority 2015, dated 2021).
